These are literature values, as cited in US11103503B2, “Pharmaceutical compositions of Lurasidone” (SLAYBACK PHARMA LLC, priority 2019, dated 2021).

For series [1] the following is noted: fed state.

On to `O=C1[C@@H]2[C@H]3CC[C@H](C3)[C@@H]2C(=O)N1C[C@@H]1CCCC[C@H]1CN1CCN(c2nsc3ccccc23)CC1` [Lurasidone, N-4-4-(1,2-benzisothiazol-3-yl)-1-piperazinyl-(2R,3R)-2,3-tetramethylene-butyl-(1R,2S,3R,4'S)-2,3-bicyclo[2.2.1]heptanedicarboxyimide], for which the solubility in water entry is on record as “very slightly soluble”. In series [1], the administered dose absorbed was 9-19%.
